Data published in patent US20240041908A1, “IMMUNOMODULATORY OLIGOSACCHARIDES FOR THE TREATMENT OF AUTISM SPECTRUM DISORDER” (Intrinsic Medicine, Inc., priority 2020, published 2024).
Where two headings read alike, the source gives them in different places.

Tests used:
[1] = system: child, diagnosed with ASD with frequent anxiety and episodes of self harm; test: Case report: child diagnosed with ASD given oral 3′-sialyllactose daily; type: in vivo, human; settings: 40-50 mg/kg per day orally once a day
Description: A child, diagnosed with ASD with frequent anxiety and episodes of self harm, was given 40-50 mg/kg per day 3′-sialyllactose (Glycom, food grade, GRAS) dosed orally once a day.

[2] = system: murine and human derived macrophages stimulated with LPS; settings: cited from earlier work; for IL-1β, IL-2, IL-4, IL-6, IL-12, IFNγ or TNF-α: in vitro
TNFα and IL-8 = settings: independent anti-inflammatory effects; cited from earlier work

## CC(=O)N[C@H]1C([C@H](O)[C@H](O)CO)O[C@@](O[C@@H]2C(O)[C@H](O[C@@H]3C(CO)O[C@@H](O)C(O)[C@H]3O)OC(CO)[C@@H]2O)(C(=O)O)C[C@H]1O (some centres unmarked) [3′-sialyllactose]
[1]; measured by parent before and after treatment
  heart rate: reduction in heart rate
[1]; noted by parent
  anxiety: significant decrease
  self-harm episodes: significant decrease
[2]
  PDL1, COX2 and select chemokines such as CCL2 (MCP1) and CCL5: reduce
[2]; listed as 3′-SL
  IL-1β, IL-2, IL-4, IL-6, IL-12, IFNγ or TNF-α: more significant reductions
[2]; listed as 3′SL
  IL-1β, IL-2, IL-4, IL-6, IL-12, IFNγ or TNF-α: reductions

## CC1O[C@@H](OC2[C@H](O[C@H]3C(O)C(O)C(O)O[C@H]3CO)OC(CO)[C@H](O)[C@@H]2O)C(O)[C@@H](O)[C@@H]1O (some centres unmarked) [2′fucosyllactose, 2′-fucosyllactose]
TNFα and IL-8
  TNFα and IL-8: reduction

## CC(=O)N[C@H]1C([C@H](O)[C@H](O)CO)O[C@@](OCC2O[C@@H](O[C@@H]3C(CO)O[C@@H](O)C(O)[C@H]3O)C(O)[C@@H](O)[C@H]2O)(C(=O)O)C[C@H]1O (some centres unmarked) [6′SL, 6′-sialyllactose]
[2]
  IL-1β, IL-2, IL-4, IL-6, IL-12, IFNγ or TNF-α: reductions
